Measured values reported in patent publication US20060183794A1, “Drug composition containing nf-kb inhibitor” (priority 2002, published 2006).

What was measured:
[1] = test system: human pancreatic cancer cell lines, Panc-1, PK-8, and Colo357; assay: In vitro proliferation of human pancreatic cancer cell lines, DHMEQ with irradiation; assay type: cell-based
Protocol: The in vitro suppressive effect of DHMEQ on proliferation of human pancreatic cancer cell lines when DHMEQ and irradiation are used in combination was investigated. The human pancreatic cancer cell lines, Panc-1, PK-8, and Colo357 were plated 10 cm dishes (5×10^5 cells each). After two days, cells were irradiated with either 2.5 Gy or 10 Gy radiation, followed by administration of 10 μg/ml DHMEQ for 4 hours in the combinatin group. The number of cells was measured after 24 hours. Either the point of the completion of irradiation or the point of the start of the drug administration was assumed to be 0 hours.

NF-κB [2] = biological target: T1, NF-κB (Homo sapiens, UniProt P19838+Q04206); assay: Reporter gene (luciferase) assay of NF-κB transcriptional activity in ATL cell lines; assay type: cell-based; design: endogenous in cells; settings: MT-1 and TL-Om1; 5 μg/ml DHM2EQ; remaining activity vs untreated
T1 sequence (Q04206 whole entry): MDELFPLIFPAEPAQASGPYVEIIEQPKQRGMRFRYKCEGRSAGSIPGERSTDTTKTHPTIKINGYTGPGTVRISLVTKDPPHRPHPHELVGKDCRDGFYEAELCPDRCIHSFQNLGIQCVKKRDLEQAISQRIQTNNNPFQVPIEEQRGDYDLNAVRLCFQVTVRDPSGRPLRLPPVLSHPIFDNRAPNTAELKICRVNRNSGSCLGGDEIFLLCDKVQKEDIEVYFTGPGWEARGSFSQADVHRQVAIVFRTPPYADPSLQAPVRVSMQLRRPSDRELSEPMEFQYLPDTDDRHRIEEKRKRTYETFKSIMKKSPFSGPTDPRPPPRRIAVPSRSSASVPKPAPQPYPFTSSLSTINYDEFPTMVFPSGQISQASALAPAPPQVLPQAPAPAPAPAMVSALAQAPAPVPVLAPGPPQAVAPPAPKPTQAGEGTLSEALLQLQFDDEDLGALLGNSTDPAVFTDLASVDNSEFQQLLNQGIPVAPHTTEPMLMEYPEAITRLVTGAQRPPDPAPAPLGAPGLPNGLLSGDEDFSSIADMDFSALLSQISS
T1 sequence (P19838 1-433 limits assumed): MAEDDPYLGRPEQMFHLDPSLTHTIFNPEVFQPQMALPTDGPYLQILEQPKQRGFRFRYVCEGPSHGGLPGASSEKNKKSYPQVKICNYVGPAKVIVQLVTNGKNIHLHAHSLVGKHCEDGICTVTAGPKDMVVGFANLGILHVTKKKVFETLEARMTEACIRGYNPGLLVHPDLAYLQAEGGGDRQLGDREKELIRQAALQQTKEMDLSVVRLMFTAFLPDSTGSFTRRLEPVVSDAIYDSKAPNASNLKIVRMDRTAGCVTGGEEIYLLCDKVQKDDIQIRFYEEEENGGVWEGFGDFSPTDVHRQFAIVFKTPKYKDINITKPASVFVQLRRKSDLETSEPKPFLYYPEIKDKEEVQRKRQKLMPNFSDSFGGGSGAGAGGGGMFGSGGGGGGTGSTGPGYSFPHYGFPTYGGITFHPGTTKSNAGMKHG
Protocol: To examine the transcriptional activity of NF-κB, by using a luciferase construct (6 kB-Luc plasmid), containing six tandem copies of the NF-κB binding sequence, driven with an artificial promoter as a reporter, this plasmid DNA was transiently introduced into the ATL cell lines (MT-1 and TL-Om1) as well as into the control cell line (K562) (transfected on a scale of 2×10^5 cells/transfection using DMRIE-C (Invitrogen)). After 12 hours, treatment with 5 μg/ml DHM2EQ was started. Cells were recovered after 48 hours and the transcriptional activity of NF-κB was evaluated as the enzyme activity of the luciferase. The cell lines not treated with DHM2EQ were also evaluated in the same manner. All experiments were performed three times to obtain average values as well as standard deviations.

NF-κB [3] = biological target: T1, NF-κB; assay: Gel shift assay of constitutive NF-κB activation in ATL cell lines; assay type: cell-based; design: endogenous in cells; settings: MT-1 and TL-Om1; 10 μg/ml DHM2EQ, 12 hours
Protocol: The ATL cell lines (MT-1 and TL-Om1) and the control cell lines (K562 and Jurkat+TNF), 2×10^6 cells each, were treated with 10 μg/ml DHM2EQ for 12 hours, and nuclear extract was prepared from each cell line. Likewise, nuclear extract was prepared also from the cell lines not treated with DHM2EQ. MT-1 and TL-Om1 are the cell lines transformed with HTLV-1; NF-κB is activated in these cell lines. K562 (myelocytic leukemia cell line) is a cell line in which constitutive NF-κB is not confirmed (a negative control), and Jurkat+TNF is a […] consensus oligomers (Promega) were end-labeled with [γ-^32P]-ATP and polynucleotide kinase (PNK) to prepare ^32P-labeled NF-κB probes.
The equivalent of 2 μg of nuclear extract protein was mixed with NF-κB probes (the equivalent of 10,000 cpm) in a volume of 20 μl and reacted at room temperature for 30 min. The solution after the reaction was subjected to 7.5% polyacrylamide gel electrophoresis. The gel was then dried and exposed to an X-ray film.

NF-κB [4] = biological target: T1, NF-κB; assay: Gel shift assay (EMSA) of NF-κB activation in stimulated HUVECs; assay type: cell-based; design: endogenous in cells; host or cells: MCF-7 cells treated with TNF-α; settings: DHMEQ 3 μg/ml, 2 h pretreatment
Description: HUVECs were pretreated with DHMEQ as follows. […] Nuclear extract was thus obtained.

[5] = test system: normal peripheral blood mononuclear cells; assay: MTT assay, normal peripheral blood mononuclear cells; assay type: cell-based, human
Protocol: Mononuclear cells were isolated from normal peripheral blood and DHM2EQ was added at final concentrations of 2, 5, and 10 μg/ml, followed by 72-hour incubation. The proliferation-inhibitory effect was examined by the MTT assay. Cells to which the solvent DMSO had been added in equal volume (0 μg/ml) were used as controls. The cell viability was represented as the ratio to the MTT value of the controls (DHM2EQ-untreated) by letting it=100%.
Next, to investigate the inhibitory effect of DHMEQ on proliferation of cells of multiple myeloma (MM) patients, MM cells (MM1, MM2, and MM3) were isolated from patients' bone marrow, incubated for 48 hours at the DHMEQ concentration of 10 μg/ml, and the proliferation-inhibitory effect was examined by the MTT assay. Peripheral blood mononuclear cells (PBMC) isolated from normal peripheral blood were used as control cells. In the figure, the vertical axis indicates the relative values of the MTT values of treated cells versus untreated cells, i.e., (DHMEQ-treated/untreated)×100%.

K562 = assay: Hoechst staining apoptosis assay, control cell line K562; assay type: cell-based; settings: 10 μg/ml, 72 hours
Protocol: DHM2EQ was added to the ATL cell lines (MT-1 and TL-Om1) and a control cell line (K562) at a final concentration of 10 μg/ml, followed by incubation for 72 hours. Subsequently, apoptosis was examined by observing nuclear […] or fragmentation on Hoechst staining with a fluorescence microscope. Cells to which the solvent DMSO had been added in equal volume were also examined in the same manner.

[6] = test system: ATL cells of ATL patients; assay: MTT assay, ATL cells from peripheral blood of ATL patients; assay type: cell-based, human; settings: three cases; 10 μg/ml, 24 hours
Protocol: Mononuclear cells were isolated from peripheral blood cells of ATL patients and ATL cells were isolated. DHM2EQ was added to the isolated ATL cells of three cases at a final concentration of 10 μg/ml and the cells were incubated for 24 hours. The proliferation-inhibitory effect was examined by the MTT assay. Using the cells to which solvent DMSO had been added in equal volume as controls, the proliferation-inhibitory effect was evaluated by the ratio of the MMT values of DHM2EQ-treated cells to those of DHM2EQ-untreated cells, i.e., (MTT values of DHM2EQ-treated cells/MTT values of DHM2EQ-untreated cells).

## O=C(NC1=CC(=O)C2OC2C1O)c1ccccc1O (stereo not drawn) [DHMEQ, 5,6-epoxy-4-hydroxy-3-salicyloylamino-2-cyclohexenone]
[1]; Colo357 and Panc-1, 10 μg/ml 4 hours after irradiation
  suppressive effect on proliferation in combination with irradiation: synergistic suppressive effect
[1]; Colo357 and Panc-1, combination with irradiation
  enhancement of irradiation effect (2.5 Gy to 10 Gy or equivalent): four-fold
[1]; PK-8 and Colo357, 10 μg/ml, 4-hour contact, cell number after 24 hours
  suppressive effect on proliferation, DHMEQ alone: sufficient suppressive effect
[1]; PK-8 and Colo357, 10 μg/ml, 4 hours
  radiation dose of equal effect: 2.5 Gy
[1]; Panc-1
  effectiveness of DHMEQ alone: less effective
NF-κB [2]
  luciferase activity suppressed to (NF-κB transcriptional activity): about 50%
NF-κB [3]
  signal of NF-κB (gel shift): almost lost
NF-κB [4]
  activation of NF-κB in HUVECs caused by TNF-α, IL-1β, and LPS: completely suppressed
[5]; 2, 5, 10 μg/ml, 72 hours
  proliferation of normal peripheral blood mononuclear cells (MTT): almost no inhibitory effect
[5]; PBMC control, 10 μg/ml, 48 hours
  influence on peripheral blood mononuclear cells (MTT): almost no influence
K562
  apoptosis (Hoechst staining): apoptosis was not observed
[6]
  proliferation of ATL cells obtained from patients (MTT): exhibits an inhibitory effect
